Reference: patent US20260294947A1, “FUCOSYLATED MAMMALIAN MILK OLIGOSACCHARIDE FOR USE IN THE PREVENTION OR TREATMENT OF SHIPPING FEVER” (Inbiose N.V., priority 2023, published 2026)

Tests used:
[1] = Mortality and adverse effects in calves (health and safety observation); format: in vivo, Holstein Friesian calves (bovine)
Description: (§1) Holstein Friesian calves (2-3 week-old, 95% male) were transported from different farms to the experimental facility of Denkavit (Voorthuizen, The Netherlands) where the animals were reared. The experiment was performed in two trial rounds.
(§2) The calves were randomly and gender-equally divided in two groups based on experimental calf milk replacer: group A (placebo-standard calf milk replacer (CMR) powder of the farm) and group B (standard CMR powder supplemented with 0.005% drywt. 2′-fucosyllactose (2′FL, see Example 1). The calf milk replacer was administered as a liquid to the calves (water was added to the CMR powder to obtain 150 gram CMR powder per liter liquid CMR). Each group involved […], assigned into 12 rows. Each row contained 4 pens, where six calves were living in one pen.
(§3) 2′-fucosyllactose was supplied to calves via CMR (major components are presented in Table 1) during the whole trial, lasting 6 months. The Start CMR was given from arrival till week 6, which then switched to the Gold Alfa CMR up to day 136. The remaining time calves were fed with the Omega CMR. Solid feed (concentrates) was introduced gradually from arrival, starting with the Avance Alfa up till day 126, then replaced by the Avance Omega till the end of the experiment. Feed was provided ad libitum to calves twice a day (morning and evening) and were recorded daily based on rows (concentrates, straw, corn silage) or groups (CMR) consumption.
(§4) The calves were randomly and gender-equally divided in two groups based on experimental calf milk replacer (CMR): group A (placebo-standard CMR powder of the farm), group B (standard CMR powder supplemented with 0.005% drywt. 2′FL). The calf milk replacer was administered as a liquid to the calves (water was added to the CMR powder to obtain 150 gram CMR powder per liter liquid CMR). Each group involved 100 calves, assigned into four rows (25 calves per row) of two compartment blocks. Each row contained five pens, where four to six calves were living in one pen.
(§5) Starting from the day of arrival, calves received standard calf milk replacer (CMR) during a period of 9 weeks. Group A only received the CMR, while the CMR supplied to groups B was supplemented with 0.005% drywt. 2′FL. Calf starter (concentrates) and straw were introduced gradually from day 6 till the end of the experiment (12 weeks) while calves had access to corn silage at weeks 11 and 12. Feed were provided ad libitum to calves twice a day (morning and evening) and were recorded daily based on rows (concentrates, straw, corn silage) or groups (CMR) consumption.
(§6) Calves were followed up by the farm staffs since arrival till the end of the trial. Fecal consistency in scale 1-4 (Larson et al., 1977, J. Dairy Science, 60 (6): p. 989-991) was recorded daily for the first ten days since arrival. Number of mortalities and signs of adverse effects were registered daily. […] Disease incidences and medicinal usage based on individual treatments were recorded to compare between treatment groups. Live weight of the animals was monitored at arrival (d1), two weeks (W2), six weeks (W6), ten weeks (W10) and 12 weeks (W12) and 17 weeks (W17) since arrival. […]
(§7) Odds ratios and risk ratios of the pneumonia and diarrhea incidence were evaluated with the epitools R package using the Wald test (cran.r-project.org/web/packages/epitools/epitools.pdf). […]

diarrhea = test: Diarrhea incidence in calves fed 2′FL-supplemented calf milk replacer versus placebo (standard CMR); format: in vivo, Holstein Friesian calves (bovine); conditions: for Diarrhea cases: group B, 0.005% drywt. 2′FL in CMR
Description: as §1, §2, §3
The calves were randomly and gender-equally divided in two groups based on experimental calf milk replacer (CMR): group A (placebo-standard CMR powder of the farm), group B (standard CMR powder supplemented with 0.005% drywt. 2′FL). […]
Starting from the day of arrival, calves received standard calf milk replacer (CMR) during a period of 9 weeks. […] Feed were provided ad libitum to calves twice a day (morning and evening) and were recorded daily based on rows (concentrates, straw, corn silage) or groups (CMR) consumption.
as §6, with “arrival.” for “arrival. Number of mortalities and signs of adverse effects were registered daily.”
as §7

acute pneumonia = test: Acute pneumonia incidence in calves fed 2′FL-supplemented calf milk replacer versus placebo (standard CMR); format: in vivo, Holstein Friesian calves (bovine)
Description: as §1, §2, §3, §4, §5
Calves were followed up by the farm staffs since arrival till the end of the trial. Fecal consistency in scale 1-4 (Larson et al., 1977, J. Dairy Science, 60 (6): p. 989-991) was recorded daily for the first ten days since arrival. Number of mortalities and signs of adverse effects were registered daily. The animals were treated prophylactically or metaphylactically (herd treatment) with 1 g oxytetracycline 100% (at day 4), 0.5 g Doxylin 50% WSP and 0.8 g bromhexine 2% (at day 13), and 3.1 ml Tilmicosol 250 mg/ml (at day 24) to prevent and/or treat acute lung inflammation. Individual treatments were followed by remark of the farm staffs and diagnostic of farm veterinary practitioners. Disease incidences and medicinal usage based on individual treatments were recorded to compare between treatment groups. Live weight of the animals was monitored at arrival (d1), two weeks (W2), six weeks (W6), ten weeks (W10) and 12 weeks (W12) and 17 weeks (W17) since arrival. Feed conversion ratio (FCR) of each period was computed based on the input of daily weight gain and daily feed intake. […]

jejunum = test: Jejunal RNAseq (transcriptomics), Gene Ontology enrichment analysis of differentially expressed genes, 2′FL versus placebo; format: in vivo, Bos taurus (calves); conditions: day 71 (W11)
Description: One healthy and middle weight calf of one pen per group was picked for euthanization in the slaughterhouse at day 71 (W11) (8 calves in total, 4 per group). A 20 cm segment of jejunum without Peyer's patch was excised and washed three times with physiological serum using a 30 ml syringe. A small segment (2-3 mm) was further excised and stored in 2 ml RNA protect tissue reagent (Qiagen) containing RNA preservation buffer for transportation at room temperature before long-term storage at −80° C.
Jejunal specimens stored in RNA protect tissue reagent were excised further to transfer 50 mg tissue into 2 ml tubes. The tissues were disrupted and homogenized using one stainless steel bead 5 mm in 900 μl QIAzol lysis reagent (QIAgen) in combination with a FASTPREP® 24 device. The homogenates were further manipulated according to the guidance of the manufacturer of the RNeasy plus universal tissue mini kit (QIAgen). The total purified RNA were eluted in 40 μl and quickly checked for the concentration and quality using Nanodrop (Implen NANOPHOTOMETER®) before storage at −80° C.
Total RNA was submitted to Azenta (Genewiz, Germany) to perform RNA sequencing. The total RNA was checked again for quality and concentration using Qubit and fragment analyzer before the mRNA were selected for polyA library preparation and sequenced using the ILLUMINA® Novaseq™ 2×150 bp technology platform guaranteed 20 million paired-end reads per samples (40 million reads).
RNA sequencing reads were quality-checked with fastqc (bioinformatics.babraham.ac.uk/projects/fastqc/) and trimmed with Trimmomatic (Bolger et al., 2014, Bioinformatics 30 (15): p. 2114-2120). Reads were aligned to the cow reference (Bos_taurus_UMD_3.1.1) using the genome alignment method in STAR (Dobin et al., 2013, Bioinformatics 29 (1): p. 15-21); Gene expression was quantified by featureCounts (Liao et al., 2014, Bioinformatics 30 (7): p. 923-930) and differential expression analysis was performed using DEseq2 (Love et al., 2014, Genome Biol. 15 (2): 550). Enrichment analysis of differential expressed was done in clusterProfiler (Wu et al., 2021, Innovation 2 (3): 100141) based on Gene Ontology.

## 2′-fucosyllactose [2′FL]
[1]; registered by the farm staffs, target animals (calves), both rounds
  Adverse effects: no adverse effects
[1]; round 1, 6 months, group B (2′FL), placebo 4.14%, 262800 min
  Mortality: 3.1%
[1]; round 1, 6 months, group B (2′FL), placebo 12 (4.14%)
  Calves dead: 9 calves
[1]; round 1, 6 months, Kaplan-Meier test
  Mortality, difference between groups: no significant difference in mortality between the experimental groups
[1]; round 2, 12 weeks, 7/400 calves died in all groups
  Mortality, difference between groups: no significant difference in mortality between the different groups
diarrhea; round 1 (veal calf)
  Relative risk of getting diarrhea, group B versus placebo: 0.71
diarrhea; round 1 (veal calf), out of 290 calves, placebo 51 cases
  Diarrhea cases: 36 cases
diarrhea; round 1 (veal calf), standard CMR (placebo) versus 2′FL supplemented CMR
  Odds ratio associated with diarrhea: 1.51
diarrhea; round 2 (rearing calf), 100 calves per group, placebo 1 case
  Diarrhea cases: 0 cases
Acute pneumonia; round 1 (veal calf), 0.005% drywt. 2′FL in CMR
  Relative risk of getting acute pneumonia, group B versus placebo: 0.86
Acute pneumonia; round 1 (veal calf), group B, 0.005% drywt. 2′FL in CMR, 6 months, out of 290 calves, placebo 111 cases
  Acute pneumonia cases: 96 cases
Acute pneumonia; round 2 (rearing calf), 0.005% drywt. 2′FL in CMR
  Relative risk of getting acute pneumonia, group B versus placebo: 0.63
Acute pneumonia; round 2 (rearing calf), group B, 0.005% drywt. 2′FL in CMR for 9 weeks, 12-week trial, 100 calves per group, placebo 27 cases
  Acute pneumonia cases: 17 cases
Acute pneumonia; round 2 (rearing calf), group B, placebo 27%
  Acute pneumonia cases, share of calves: 17%
Acute pneumonia; rounds 1 and 2 integrated, standard CMR (placebo) versus 2′FL supplemented CMR, Mantel-Haenszel
  Common odds ratio of acute pneumonia: 1.35
jejunum; 4 calves per group
  Immune responses versus placebo (enrichment analysis): enhanced immune responses in several ways (T cell activation, cell differentiation, cell-cell adhesion, adaptive immune response)
jejunum; group B versus placebo
  p. adjust, up-regulated gene ontology process ADAPTIVE_IMMUNE_RESPONSE: 4.15E−06
  p. adjust, up-regulated gene ontology process ADAPTIVE_IMMUNE_RESPONSE_BASED_ON_SOMATIC_RECOMBINATION_OF_IMMUNE_RECEPTORS_BUILT_FROM_IMMUNOGLOBULIN_SUPERFAMILY_DOMAINS: 0.00573
  p. adjust, up-regulated gene ontology process EXTERNAL_SIDE_OF_PLASMA_MEMBRANE: 0.000673
  p. adjust, up-regulated gene ontology process HETEROTYPIC_CELL_CELL_ADHESION: 0.003478
  p. adjust, up-regulated gene ontology process LEUKOCYTE_DIFFERENTIATION: 0.003462
  p. adjust, up-regulated gene ontology process LYMPHOCYTE_MEDIATED_IMMUNITY: 0.003478
  p. adjust, up-regulated gene ontology process MONONUCLEAR_CELL_DIFFERENTIATION: 0.000274
  p. adjust, up-regulated gene ontology process NEGATIVE_REGULATION_OF_ADAPTIVE_IMMUNE_RESPONSE: 0.002368
  p. adjust, up-regulated gene ontology process NEGATIVE_REGULATION_OF_IMMUNE_SYSTEM_PROCESS: 0.001169
  p. adjust, up-regulated gene ontology process NEGATIVE_REGULATION_OF_LEUKOCYTE_MEDIATED_IMMUNITY: 0.002368
  p. adjust, up-regulated gene ontology process NEGATIVE_REGULATION_OF_LYMPHOCYTE_MEDIATED_IMMUNITY: 0.00552
  p. adjust, up-regulated gene ontology process POSITIVE_THYMIC_T_CELL_SELECTION: 0.00573
  p. adjust, up-regulated gene ontology process POSITIVE_T_CELL_SELECTION: 0.003206
  p. adjust, up-regulated gene ontology process REGULATION_OF_ADAPTIVE_IMMUNE_RESPONSE: 0.003206
  p. adjust, up-regulated gene ontology process REGULATION_OF_LEUKOCYTE_MEDIATED_IMMUNITY: 0.003478
  p. adjust, up-regulated gene ontology process REGULATION_OF_T_CELL_ACTIVATION: 0.003668
  p. adjust, up-regulated gene ontology process T_CELL_ACTIVATION: 9.06E−06
  p. adjust, up-regulated gene ontology process T_CELL_DIFFERENTIATION: 0.000662
  p. adjust, up-regulated gene ontology process T_CELL_PROLIFERATION: 0.002368
  p. adjust, up-regulated gene ontology process T_CELL_RECEPTOR_COMPLEX: 0.000274
